Laboratory results from ChEMBL document CHEMBL2203257 (Bioorg Med Chem Lett, 2012).

What was measured:
[1] = target: Serine/threonine-protein kinase TAO2 (Homo sapiens, UniProt Q9UL54); assay: Inhibition of TAOK2
[2] = target: Calcium/calmodulin-dependent protein kinase type 1D (Homo sapiens, UniProt Q8IU85); assay: Inhibition of CAMK1D
[3] = target: Mitogen-activated protein kinase kinase kinase 11 (Homo sapiens, UniProt Q16584); assay: Inhibition of MAP3K11
[4] = target: Casein kinase II subunit alpha' (Homo sapiens, UniProt P19784); assay: Inhibition of CSNK2A2
[5] = target: Serine/threonine-protein kinase SIK3 (Homo sapiens, UniProt Q9Y2K2); assay: Inhibition of KIAA0999
[6] = test system: Mus musculus; assay: Antiarthritic activity against collagen-induced arthritis mouse model assessed as mean clinical arthritis score with AUC calculation in at 10 mg/kg, po BID for 14 days; type: functional
[7] = target: Casein kinase I isoform gamma-3 (Homo sapiens, UniProt Q9Y6M4); assay: Inhibition of CSNK1G3
[8] = target: Ephrin type-A receptor 3 (Homo sapiens, UniProt P29320); assay: Inhibition of EPHA3
[9] = target: Casein kinase II subunit alpha (Homo sapiens, UniProt P68400); assay: Inhibition of CSNK2A1
[10] = target: Bone morphogenetic protein receptor type-1A (Homo sapiens, UniProt P36894); assay: Inhibition of BMPR1A
Sequence of Bone morphogenetic protein receptor type-1A (P36894 whole entry, canonical isoform): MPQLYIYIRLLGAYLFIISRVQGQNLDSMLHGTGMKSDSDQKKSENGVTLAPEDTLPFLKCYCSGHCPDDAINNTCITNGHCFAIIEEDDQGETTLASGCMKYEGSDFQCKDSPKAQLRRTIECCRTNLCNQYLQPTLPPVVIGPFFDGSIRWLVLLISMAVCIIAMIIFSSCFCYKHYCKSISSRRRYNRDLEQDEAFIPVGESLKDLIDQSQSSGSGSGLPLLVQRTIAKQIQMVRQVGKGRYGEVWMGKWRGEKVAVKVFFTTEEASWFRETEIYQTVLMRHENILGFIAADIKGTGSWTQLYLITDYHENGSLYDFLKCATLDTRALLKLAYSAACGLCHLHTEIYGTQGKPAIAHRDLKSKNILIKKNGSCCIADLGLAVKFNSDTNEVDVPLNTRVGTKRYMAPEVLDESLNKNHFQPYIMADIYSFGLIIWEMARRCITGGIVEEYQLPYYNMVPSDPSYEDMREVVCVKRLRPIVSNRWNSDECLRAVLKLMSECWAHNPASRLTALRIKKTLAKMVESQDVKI

[11] = target: Phosphatidylinositol 4,5-bisphosphate 3-kinase catalytic subunit delta isoform/gamma isoform (Homo sapiens, UniProt P48736+O00329); assay: Inhibition of PI3Kgamma/delta by neutrophil migration assay
[12] = target: Mitogen-activated protein kinase 11 (Homo sapiens, UniProt Q15759); assay: Inhibition of MAPK11
[13] = target: Mitogen-activated protein kinase 1 (Homo sapiens, UniProt P28482); assay: Inhibition of MAPK1
[14] = target: Serine/threonine-protein kinase 16 (Homo sapiens, UniProt O75716); assay: Inhibition of STK16
[15] = target: Ephrin type-B receptor 4 (Homo sapiens, UniProt P54760); assay: Inhibition of EPHB4
[16] = target: Serine/threonine-protein kinase D2 (Homo sapiens, UniProt Q9BZL6); assay: Inhibition of PRKD2
[17] = target: Serine/threonine-protein kinase TAO3 (Homo sapiens, UniProt Q9H2K8); assay: Inhibition of TAOK3
Sequence of Serine/threonine-protein kinase TAO3 (Q9H2K8 whole entry): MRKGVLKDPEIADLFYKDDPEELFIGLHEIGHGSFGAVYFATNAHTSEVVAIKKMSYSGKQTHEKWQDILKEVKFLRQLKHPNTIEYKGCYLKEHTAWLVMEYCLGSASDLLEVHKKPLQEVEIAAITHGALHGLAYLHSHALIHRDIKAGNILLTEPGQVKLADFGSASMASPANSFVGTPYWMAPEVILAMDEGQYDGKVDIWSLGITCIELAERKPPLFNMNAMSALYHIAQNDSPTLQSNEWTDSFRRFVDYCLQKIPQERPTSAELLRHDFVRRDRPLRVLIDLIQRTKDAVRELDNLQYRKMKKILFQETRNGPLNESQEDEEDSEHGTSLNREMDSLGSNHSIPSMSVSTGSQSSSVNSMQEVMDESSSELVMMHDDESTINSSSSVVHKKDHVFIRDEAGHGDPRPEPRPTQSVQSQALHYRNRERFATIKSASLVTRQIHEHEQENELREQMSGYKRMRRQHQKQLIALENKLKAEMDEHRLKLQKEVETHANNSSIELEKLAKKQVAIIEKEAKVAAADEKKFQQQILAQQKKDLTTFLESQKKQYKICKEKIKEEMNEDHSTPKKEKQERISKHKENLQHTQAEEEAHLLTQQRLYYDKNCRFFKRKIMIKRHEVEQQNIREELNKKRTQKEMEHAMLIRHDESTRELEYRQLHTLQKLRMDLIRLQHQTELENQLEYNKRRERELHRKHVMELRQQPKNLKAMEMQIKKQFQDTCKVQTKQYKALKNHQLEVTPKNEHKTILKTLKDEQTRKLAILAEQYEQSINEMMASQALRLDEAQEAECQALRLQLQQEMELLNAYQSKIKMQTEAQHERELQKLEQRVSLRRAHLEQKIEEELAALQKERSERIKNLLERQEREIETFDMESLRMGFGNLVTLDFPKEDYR

[18] = target: Protein kinase C alpha type (Homo sapiens, UniProt P17252); assay: Inhibition of PRKCA
[19] = target: Bromodomain-containing protein 2 (Homo sapiens, UniProt P25440); assay: Inhibition of BRD2
[20] = target: Calcium/calmodulin-dependent protein kinase type IV (Homo sapiens, UniProt Q16566); assay: Inhibition of CAMK4
[21] = target: Aurora kinase B (Homo sapiens, UniProt Q96GD4); assay: Inhibition of AURKB
Sequence of Aurora kinase B (Q96GD4 whole entry): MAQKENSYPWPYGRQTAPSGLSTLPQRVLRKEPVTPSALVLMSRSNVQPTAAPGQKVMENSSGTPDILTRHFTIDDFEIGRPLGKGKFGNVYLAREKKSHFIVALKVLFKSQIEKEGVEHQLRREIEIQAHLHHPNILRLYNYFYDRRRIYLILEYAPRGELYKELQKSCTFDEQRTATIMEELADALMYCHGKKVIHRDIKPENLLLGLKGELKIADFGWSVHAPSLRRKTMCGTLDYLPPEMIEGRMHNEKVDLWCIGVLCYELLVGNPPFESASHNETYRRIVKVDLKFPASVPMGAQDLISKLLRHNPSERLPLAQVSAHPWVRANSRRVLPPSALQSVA

[22] = target: Serine/threonine-protein kinase MARK2 (Homo sapiens, UniProt Q7KZI7); assay: Inhibition of MARK2
[23] = target: Cyclin-dependent kinase 9 (Homo sapiens, UniProt P50750); assay: Inhibition of CDK9
[24] = target: Atypical kinase COQ8B, mitochondrial (Homo sapiens, UniProt Q96D53); assay: Inhibition of ADCK4
Sequence of Atypical kinase COQ8B, mitochondrial (Q96D53 whole entry, canonical isoform): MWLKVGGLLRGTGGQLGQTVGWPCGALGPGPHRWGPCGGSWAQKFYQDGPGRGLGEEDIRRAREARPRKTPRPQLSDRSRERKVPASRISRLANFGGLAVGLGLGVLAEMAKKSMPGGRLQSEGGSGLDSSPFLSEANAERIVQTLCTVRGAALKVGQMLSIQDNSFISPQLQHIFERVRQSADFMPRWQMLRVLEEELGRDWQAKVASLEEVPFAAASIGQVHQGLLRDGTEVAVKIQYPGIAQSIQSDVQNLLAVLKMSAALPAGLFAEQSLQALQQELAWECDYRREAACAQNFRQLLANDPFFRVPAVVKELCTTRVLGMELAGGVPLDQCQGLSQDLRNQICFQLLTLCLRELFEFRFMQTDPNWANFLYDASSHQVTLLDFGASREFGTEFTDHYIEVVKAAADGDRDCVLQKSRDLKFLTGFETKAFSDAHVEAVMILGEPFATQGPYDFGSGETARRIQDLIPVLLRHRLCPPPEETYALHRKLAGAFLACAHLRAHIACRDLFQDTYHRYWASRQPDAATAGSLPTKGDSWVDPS

[25] = target: Casein kinase I isoform gamma-1 (Homo sapiens, UniProt Q9HCP0); assay: Inhibition of CSNK1G1
[26] = test system: Mus musculus; assay: Antiinflammatory activity in mouse air pouch model assessed as effect on IL-8-induced migration of granulocytes into air pouch at 3 mg/kg, po; type: functional
[27] = target: Dual specificity protein kinase CLK2 (Homo sapiens, UniProt P49760); assay: Inhibition of CLK2
[28] = target: Protein kinase C delta type (Homo sapiens, UniProt Q05655); assay: Inhibition of PRKCD
[29] = target: Activin receptor type-1B (Homo sapiens, UniProt P36896); assay: Inhibition of ACVR1B
[30] = target: Tyrosine-protein kinase ABL2 (Homo sapiens, UniProt P42684); assay: Inhibition of ABL2
Sequence of Tyrosine-protein kinase ABL2 (P42684 whole entry): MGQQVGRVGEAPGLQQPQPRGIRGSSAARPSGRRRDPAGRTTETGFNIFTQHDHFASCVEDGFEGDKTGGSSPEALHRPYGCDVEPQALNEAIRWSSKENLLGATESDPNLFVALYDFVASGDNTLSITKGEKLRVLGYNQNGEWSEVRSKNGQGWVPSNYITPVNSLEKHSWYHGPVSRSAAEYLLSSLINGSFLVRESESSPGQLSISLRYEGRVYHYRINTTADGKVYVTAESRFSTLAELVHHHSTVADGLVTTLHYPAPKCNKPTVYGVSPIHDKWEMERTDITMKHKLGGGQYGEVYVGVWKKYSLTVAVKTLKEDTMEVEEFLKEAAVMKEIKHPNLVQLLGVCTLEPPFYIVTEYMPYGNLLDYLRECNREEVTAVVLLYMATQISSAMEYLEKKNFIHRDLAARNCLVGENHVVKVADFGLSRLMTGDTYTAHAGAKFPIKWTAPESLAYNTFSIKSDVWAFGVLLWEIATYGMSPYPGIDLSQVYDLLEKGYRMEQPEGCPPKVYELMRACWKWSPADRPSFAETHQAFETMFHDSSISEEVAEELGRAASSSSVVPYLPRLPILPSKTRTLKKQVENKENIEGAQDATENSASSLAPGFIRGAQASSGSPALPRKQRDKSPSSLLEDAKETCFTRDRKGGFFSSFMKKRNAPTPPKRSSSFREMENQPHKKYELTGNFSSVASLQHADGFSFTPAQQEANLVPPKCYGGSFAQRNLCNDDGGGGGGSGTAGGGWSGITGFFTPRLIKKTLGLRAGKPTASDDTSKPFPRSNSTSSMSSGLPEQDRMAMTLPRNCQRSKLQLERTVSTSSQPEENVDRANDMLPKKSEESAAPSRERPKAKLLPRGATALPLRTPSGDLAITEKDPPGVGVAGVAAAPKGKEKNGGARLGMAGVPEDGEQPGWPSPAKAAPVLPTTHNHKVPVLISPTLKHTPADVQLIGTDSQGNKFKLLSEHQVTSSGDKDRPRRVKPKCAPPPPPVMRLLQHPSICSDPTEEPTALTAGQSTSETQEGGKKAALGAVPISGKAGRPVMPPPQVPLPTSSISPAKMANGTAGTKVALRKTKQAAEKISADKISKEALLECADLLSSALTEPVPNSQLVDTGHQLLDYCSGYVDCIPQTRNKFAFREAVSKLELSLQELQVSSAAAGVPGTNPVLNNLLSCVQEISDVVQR

[31] = target: MAP/microtubule affinity-regulating kinase 4 (Homo sapiens, UniProt Q96L34); assay: Inhibition of MARK4
[32] = target: Ribosomal protein S6 kinase alpha-4 (Homo sapiens, UniProt O75676); assay: Inhibition of RPS6KA4
[33] = target: Bromodomain-containing protein 4 (Homo sapiens, UniProt O60885); assay: Inhibition of BRD4
[34] = target: Dual specificity mitogen-activated protein kinase kinase 2 (Homo sapiens, UniProt P36507); assay: Inhibition of MAP2K2
Sequence of Dual specificity mitogen-activated protein kinase kinase 2 (P36507 whole entry): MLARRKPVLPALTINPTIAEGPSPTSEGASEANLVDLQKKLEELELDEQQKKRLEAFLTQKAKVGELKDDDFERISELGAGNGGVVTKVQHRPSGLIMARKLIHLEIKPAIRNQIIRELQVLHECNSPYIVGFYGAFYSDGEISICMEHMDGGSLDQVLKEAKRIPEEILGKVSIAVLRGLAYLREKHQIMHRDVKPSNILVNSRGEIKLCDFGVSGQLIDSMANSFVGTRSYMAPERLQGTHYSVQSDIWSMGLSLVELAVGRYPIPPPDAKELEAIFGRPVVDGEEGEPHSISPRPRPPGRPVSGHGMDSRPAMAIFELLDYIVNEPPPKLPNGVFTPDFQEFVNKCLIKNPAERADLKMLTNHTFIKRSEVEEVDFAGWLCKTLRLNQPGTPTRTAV

[35] = target: Mitogen-activated protein kinase 9 (Homo sapiens) (UniProt P45984); assay: Inhibition of MAPK9
[36] = target: Ephrin type-B receptor 6 (Homo sapiens, UniProt O15197); assay: Inhibition of EPHB6
[37] = target: Mitogen-activated protein kinase kinase kinase kinase 2 (Homo sapiens, UniProt Q12851); assay: Inhibition of MAP4K2
[38] = target: Serine/threonine-protein kinase RIO2 (Homo sapiens, UniProt Q9BVS4); assay: Inhibition of RIOK2
[39] = target: Cyclin-dependent kinase 6 (Homo sapiens, UniProt Q00534); assay: Inhibition of CDK6
Sequence of Cyclin-dependent kinase 6 (Q00534 whole entry): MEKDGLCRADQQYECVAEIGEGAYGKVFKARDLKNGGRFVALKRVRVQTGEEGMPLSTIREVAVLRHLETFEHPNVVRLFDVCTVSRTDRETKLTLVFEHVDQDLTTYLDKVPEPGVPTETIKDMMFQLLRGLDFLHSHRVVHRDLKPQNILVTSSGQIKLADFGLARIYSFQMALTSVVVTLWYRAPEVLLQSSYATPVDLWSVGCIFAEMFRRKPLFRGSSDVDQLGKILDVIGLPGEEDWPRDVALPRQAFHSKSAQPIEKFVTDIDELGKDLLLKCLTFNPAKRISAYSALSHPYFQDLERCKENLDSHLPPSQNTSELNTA

[40] = target: eIF-2-alpha kinase GCN2 (Homo sapiens, UniProt Q9P2K8); assay: Inhibition of EIF2AK4
[41] = target: Epidermal growth factor receptor (Homo sapiens, UniProt P00533); assay: Inhibition of EGFR
[42] = target: Phosphatidylinositol 5-phosphate 4-kinase type-2 gamma (Homo sapiens, UniProt Q8TBX8); assay: Inhibition of PIP4K2C
[43] = test system: Mus musculus; assay: Antiarthritic activity against collagen-induced arthritis mouse model assessed as mean clinical arthritis score with AUC calculation in at 0.01 mg/kg, po BID for 14 days; type: functional
[44] = target: Cyclin-dependent kinase 1 (Homo sapiens, UniProt P06493); assay: Inhibition of CDC2
Sequence of Cyclin-dependent kinase 1 (P06493 whole entry): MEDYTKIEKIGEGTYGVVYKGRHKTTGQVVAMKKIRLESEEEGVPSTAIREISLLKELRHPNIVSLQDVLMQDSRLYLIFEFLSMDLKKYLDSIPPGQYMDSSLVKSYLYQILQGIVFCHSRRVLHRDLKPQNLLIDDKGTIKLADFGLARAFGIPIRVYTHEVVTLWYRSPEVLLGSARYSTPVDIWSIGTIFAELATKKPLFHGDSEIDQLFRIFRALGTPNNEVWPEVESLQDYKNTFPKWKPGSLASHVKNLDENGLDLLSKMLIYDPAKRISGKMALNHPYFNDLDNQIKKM

[45] = target: Aurora kinase A (Homo sapiens, UniProt O14965); assay: Inhibition of AURKA
[46] = target: Cyclin-dependent kinase 5 (Homo sapiens, UniProt Q00535); assay: Inhibition of CDK5
[47] = target: Fibroblast growth factor receptor 1 (Homo sapiens, UniProt P11362); assay: Inhibition of FGFR1
[48] = target: Serine/threonine-protein kinase Nek9 (Homo sapiens, UniProt Q8TD19); assay: Inhibition of NEK9
[49] = target: Serine/threonine-protein kinase ULK3 (Homo sapiens, UniProt Q6PHR2); assay: Inhibition of ULK3
Sequence of Serine/threonine-protein kinase ULK3 (Q6PHR2 whole entry): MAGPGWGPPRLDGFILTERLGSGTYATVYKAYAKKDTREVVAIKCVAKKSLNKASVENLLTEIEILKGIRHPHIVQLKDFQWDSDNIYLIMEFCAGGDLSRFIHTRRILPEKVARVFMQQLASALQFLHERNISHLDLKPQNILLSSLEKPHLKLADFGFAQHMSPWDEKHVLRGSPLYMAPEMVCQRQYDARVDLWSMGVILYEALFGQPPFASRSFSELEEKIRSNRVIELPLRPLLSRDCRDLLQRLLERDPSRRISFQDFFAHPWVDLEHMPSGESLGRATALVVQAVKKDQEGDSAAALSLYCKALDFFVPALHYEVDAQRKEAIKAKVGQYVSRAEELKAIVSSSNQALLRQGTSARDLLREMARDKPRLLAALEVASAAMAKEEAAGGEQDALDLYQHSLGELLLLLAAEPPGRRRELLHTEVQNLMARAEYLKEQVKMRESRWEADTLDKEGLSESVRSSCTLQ

[50] = target: Atypical kinase COQ8A, mitochondrial (Homo sapiens, UniProt Q8NI60); assay: Inhibition of CABC1
[51] = target: Interleukin-1 receptor-associated kinase 1 (Homo sapiens, UniProt P51617); assay: Inhibition of IRAK1
[52] = test system: Mus musculus; assay: Antiarthritic activity against collagen-induced arthritis mouse model assessed as inhibition of disease progression at 3 mg/kg, po BID for 14 days; type: functional; details: 336 h
[53] = target: Serine/threonine-protein kinase N1 (Homo sapiens, UniProt Q16512); assay: Inhibition of PKN1

IC50 [1]: > 10 µM
IC50 [2]: > 10 µM
IC50 [3]: > 10 µM
IC50 [4]: > 10 µM
IC50 [5]: > 10 µM
IC50 [7]: > 10 µM
IC50 [8]: > 10 µM
IC50 [9]: > 10 µM
IC50 [10]: > 10 µM
pIC50 [11]: 6.3
IC50 [12]: > 10 µM
IC50 [13]: > 10 µM
IC50 [14]: > 10 µM
IC50 [15]: > 10 µM
IC50 [16]: > 10 µM
IC50 [17]: > 10 µM
IC50 [18]: > 10 µM
IC50 [19]: > 10 µM
IC50 [20]: > 10 µM
IC50 [21]: > 10 µM
IC50 [22]: > 10 µM
IC50 [23]: > 10 µM
IC50 [24]: > 10 µM
IC50 [25]: 9.55 µM
IC50 [27]: > 10 µM
IC50 [28]: > 10 µM
IC50 [29]: > 10 µM
IC50 [30]: > 10 µM
IC50 [31]: > 10 µM
IC50 [32]: > 10 µM
IC50 [33]: > 10 µM
IC50 [34]: > 10 µM
IC50 [35]: > 10 µM
IC50 [36]: > 10 µM
IC50 [37]: > 10 µM
IC50 [38]: > 5.89 µM
IC50 [39]: > 10 µM
IC50 [40]: > 10 µM
IC50 [41]: > 10 µM
IC50 [42]: 1.07 µM
IC50 [44]: > 10 µM
IC50 [45]: > 10 µM
IC50 [46]: > 10 µM
IC50 [47]: > 10 µM
IC50 [49]: > 10 µM
IC50 [50]: > 10 µM
IC50 [51]: > 10 µM
IC50 [53]: > 10 µM
Structure (SMILES): CC(C)(C)NS(=O)(=O)c1cncc(-c2ccn3nc(N)nc3c2)c1
Activity [6]: 42%
Activity [26]: 74%
Activity [43]: 94%
IC50 [48]: > 10 µM
inhibition in vivo at 3 mg/kg [52]: 41%
